{"source": "ChEMBL document CHEMBL3272309", "about": "“Potential central nervous system antitumor agents. Aziridinylbenzoquinones. 1” (J Med Chem, 1976)", "key": {"[1]": {"test_system": "L1210", "assay": "Antitumor activity against mouse L1210 cells allografted in ip dosed mouse administered qd on day 1, 5 and 9 relative to control", "format": "functional"}, "[2]": {"test_system": "L1210", "assay": "Antitumor activity against mouse L1210 cells allografted in ip dosed mouse", "format": "functional, organism-based"}}, "note": "The source made the active and inactive calls. The rule behind the calls is not given here."}
{"smiles": "CCSC1=C(N2CC2)C(=O)C(SCC)=C(N2CC2)C1=O", "values": [{"measurement": "T/C", "setting": "[1]", "value": 130, "unit": "%"}]}
{"smiles": "CC(=O)NC1=C(Cl)C(=O)C(NC(C)=O)=C(Cl)C1=O", "values": [{"measurement": "Activity", "setting": "[2]", "value": "inactive"}]}
{"smiles": "CC(=O)NC1=C(N2CC2(C)C)C(=O)C(NC(C)=O)=C(N2CC2(C)C)C1=O", "values": [{"measurement": "Activity", "setting": "[2]", "value": "inactive"}]}
{"smiles": "CC1(C)CN1C1=C(Br)C(=O)C(N2CC2(C)C)=C(Br)C1=O", "values": [{"measurement": "Activity", "setting": "[1]", "value": "inactive"}]}
{"smiles": "CC1(C)CN1C1=C(Cl)C(=O)C(N2CC2(C)C)=C(Cl)C1=O", "values": [{"measurement": "Activity", "setting": "[1]", "value": "inactive"}]}
{"smiles": "CC1CN1C1=C(Br)C(=O)C(N2CC2C)=C(Br)C1=O", "note": "(stereo not given)", "values": [{"measurement": "Activity", "setting": "[1]", "value": "inactive"}]}
{"smiles": "CC1CN1C1=C(Cl)C(=O)C(N2CC2C)=C(Cl)C1=O", "note": "(stereo not given)", "values": [{"measurement": "Activity", "setting": "[1]", "value": "inactive"}]}
{"smiles": "CCCSC1=C(N2CC2)C(=O)C(SCCC)=C(N2CC2)C1=O", "values": [{"measurement": "Activity", "setting": "[2]", "value": "inactive"}]}
{"smiles": "CCOC(=N)C1=C(Cl)C(=O)C(C(=N)OCC)=C(Cl)C1=O", "values": [{"measurement": "Activity", "setting": "[2]", "value": "inactive"}]}
{"smiles": "COC1=C(Br)C(=O)C(OC)=C(Br)C1=O", "values": [{"measurement": "Activity", "setting": "[2]", "value": "inactive"}]}
{"smiles": "NC1=C(Cl)C(=O)C(N)=C(Cl)C1=O", "values": [{"measurement": "Activity", "setting": "[2]", "value": "inactive"}]}
{"smiles": "O=C1C(Br)=C(N2CC2)C(=O)C(Br)=C1N1CC1", "values": [{"measurement": "Activity", "setting": "[1]", "value": "inactive"}]}
{"smiles": "O=C1C(Cl)=C(Cl)C(=O)C(Cl)=C1Cl", "values": [{"measurement": "Activity", "setting": "[2]", "value": "inactive"}]}
{"smiles": "O=C1C(Cl)=C(N2CC2)C(=O)C(Cl)=C1N1CC1", "values": [{"measurement": "Activity", "setting": "[1]", "value": "inactive"}, {"measurement": "Activity", "setting": "[2]", "value": "inactive"}]}
